Laboratory results from patent US8314117B2, “CGRP receptor antagonists” (Bristol-Myers Squibb Company, priority 2009, dated 2012).
pIC50: −log10 of the molar value.

Molecular target: T1, Human CGRP Receptor (Homo sapiens, UniProt O60894+Q16602)
T1 construct: Crude membranes were prepared from SK-N-MC cells expressing CGRP receptors; endogenous in cells; host or cells: SK-N-MC cells (crude membranes)
Test: Radioligand binding assay, [125I]-CGRP displacement from SK-N-MC cell membranes
Details: SK-N-MC membranes (7 μg/well); [125I]-CGRP final 18 pM; room temperature 2 h; at least two separate experiments
Protocol: Tissue Culture. SK-N-MC cells were grown at 37° C. in 5% CO2 as a monolayer in medium consisting of MEM with Earle's salts and L-glutamine (Invitrogen) supplemented with 10% fetal bovine serum (Invitrogen). Membrane Preparation. Crude membranes were prepared from SK-N-MC cells expressing CGRP receptors. The cells were rinsed twice with phosphate-buffered saline (155 mM NaCl, 3.3 mM Na2HPO4, 1.1 mM […]4, pH 7.4), and incubated for 5-10 min. at 4° C. in hypotonic lysis buffer consisting of 10 mM Tris (pH 7.4) and 5 mM EDTA. […] Homogenates were centrifuged at 32,000×g for 30 min. The pellets were resuspended in cold hypotonic lysis buffer with 0.1% mammalian protease inhibitor cocktail (Sigma) and assayed for protein concentration. The SK-N-MC homogenate was aliquoted and stored at -80° C. Radioligand Binding Assay. The compounds of invention were solubilized and carried through serial dilutions using 100% DMSO. […] [^125I]-CGRP (GE Healthcare or Perkin-Elmer) was diluted to […] in assay buffer and a volume of 50 μl was added to each well. SK-N-MC membranes were thawed, diluted in assay buffer with fresh 0.1% mammalian protease inhibitor cocktail (Sigma), and re-homogenized. SK-N-MC homogenate (7 μg/well) was added in a volume of 100 μl. The assay plates were then incubated at room temperature for 2 h. […] Protein bound radioactivity was determined using a gamma or scintillation counter. […] Final assay concentration of [^125I]-CGRP was 18 pM. […] All compounds of invention were evaluated in at least two separate experiments.

T1 sequence (Q16602 23-461): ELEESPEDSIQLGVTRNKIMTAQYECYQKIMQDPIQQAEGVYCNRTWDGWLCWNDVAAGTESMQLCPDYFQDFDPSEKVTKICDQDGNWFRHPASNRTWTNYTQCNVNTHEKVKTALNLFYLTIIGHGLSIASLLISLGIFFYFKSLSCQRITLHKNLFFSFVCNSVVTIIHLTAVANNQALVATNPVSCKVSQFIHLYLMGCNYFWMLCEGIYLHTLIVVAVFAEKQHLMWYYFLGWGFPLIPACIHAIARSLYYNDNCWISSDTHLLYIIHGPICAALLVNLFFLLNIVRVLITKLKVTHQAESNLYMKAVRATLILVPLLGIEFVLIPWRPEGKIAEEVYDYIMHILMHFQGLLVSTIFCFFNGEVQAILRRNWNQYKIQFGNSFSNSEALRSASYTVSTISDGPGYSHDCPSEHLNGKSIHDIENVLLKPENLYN
T1 sequence (O60894 27-148): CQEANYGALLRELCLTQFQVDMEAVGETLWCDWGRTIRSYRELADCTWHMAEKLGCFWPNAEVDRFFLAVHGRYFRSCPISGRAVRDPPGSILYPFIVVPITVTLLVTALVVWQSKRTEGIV

SMILES | pIC50
O=C1c2cccnc2[C@H](OC(=O)N2CCC(n3c(=O)[nH]c4ncccc43)CC2)CCC1c1cccc(F)c1F (mixture of isomers) [Example 2, (9R)-6-(2,3-difluorophenyl)-5-oxo-6,7,8,9-tetrahydro-5H-cyclohepta[b]pyridin-9-yl 4-(2-oxo-2,3-dihydro-1H-imidazo[4,5-b]pyridin-1-yl)piperidine-1-carboxylate] | 7.55
O=C(O[C@@H]1CC[C@@](O)(c2cccc(F)c2F)C(=O)c2cccnc21)N1CCC(n2c(=O)[nH]c3ncccc32)CC1 (single isomer, unassigned) [Example 1] | 6.39
O=C(O[C@@H]1CC[C@@](O)(c2cccc(F)c2F)[C@@H](O)c2cccnc21)N1CCC(n2c(=O)[nH]c3ncccc32)CC1 (single isomer, unassigned) [Example 3] | 6.30
O=C(O[C@@H]1CCC(c2cccc(F)c2F)C(O)c2cccnc21)N1CCC(n2c(=O)[nH]c3ncccc32)CC1 (single isomer, unassigned) [Example 5] | 8.89
O=C(O[C@@H]1CC[C@@H](c2cccc(F)c2F)[C@H](O)c2cccnc21)N1CCC(n2c(=O)[nH]c3ncccc32)CC1 [Example 4, (5S,6S,9R)-6-(2,3-difluorophenyl)-5-hydroxy-6,7,8,9-tetrahydro-5H-cyclohepta[b]pyridin-9-yl 4-(2-oxo-2,3-dihydro-1H-imidazo[4,5-b]pyridin-1-yl)piperidine-1-carboxylate] | 9.80
O=C(O[C@@H]1CC[C@H](c2cccc(F)c2F)[C@H](O)c2cccnc21)N1CCC(n2c(=O)[nH]c3ncccc32)CC1 [Example 6, (5S,6R,9R)-6-(2,3-difluorophenyl)-5-hydroxy-6,7,8,9-tetrahydro-5H-cyclohepta[b]pyridin-9-yl 4-(2-oxo-2,3-dihydro-1H-imidazo[4,5-b]pyridin-1-yl)piperidine-1-carboxylate] | 8.07
[N-]=[N+]=N[C@@H]1c2cccnc2[C@H](OC(=O)N2CCC(n3c(=O)[nH]c4ncccc43)CC2)CC[C@H]1c1cccc(F)c1F [Example 7, (5S,6S,9R)-5-azido-6-(2,3-difluorophenyl)-6,7,8,9-tetrahydro-5H-cyclohepta[b]pyridin-9-yl 4-(2-oxo-2,3-dihydro-1H-imidazo[4,5-b]pyridin-1-yl)piperidine-1-carboxylate] | 9.89
N[C@@H]1c2cccnc2[C@H](OC(=O)N2CCC(n3c(=O)[nH]c4ncccc43)CC2)CC[C@H]1c1cccc(F)c1F [Example 8, (5S,6S,9R)-5-amino-6-(2,3-difluorophenyl)-6,7,8,9-tetrahydro-5H-cyclohepta[b]pyridin-9-yl 4-(2-oxo-2,3-dihydro-1H-imidazo[4,5-b]pyridin-1-yl)piperidine-1-carboxylate] | 10.40
N[C@@H]1c2cccnc2[C@H](OC(=O)N2CCC(n3c(=O)[nH]c4ncccc43)CC2)CC[C@H]1c1cc(F)cc(F)c1 [Example 10, (5S,6S,9R)-5-amino-6-(3,5-difluorophenyl)-6,7,8,9-tetrahydro-5H-cyclohepta[b]pyridin-9-yl 4-(2-oxo-2,3-dihydro-1H-imidazo[4,5-b]pyridin-1-yl)piperidine-1-carboxylate] | 9.70
O=C(O[C@@H]1CC[C@@H](c2cc(F)cc(F)c2)[C@H](O)c2cccnc21)N1CCC(n2c(=O)[nH]c3ncccc32)CC1 [Example 11, (5S,6S,9R)-6-(3,5-difluorophenyl)-5-hydroxy-6,7,8,9-tetrahydro-5H-cyclohepta[b]pyridin-9-yl 4-(2-oxo-2,3-dihydro-1H-imidazo[4,5-b]pyridin-1-yl)piperidine-1-carboxylate] | 9.05
O=C(O[C@H]1c2ncccc2C[C@H](c2cccc(F)c2F)C[C@H]1O)N1CCC(n2c(=O)[nH]c3ncccc32)CC1 [Example 12, (6S,8R,9S)-6-(2,3-difluorophenyl)-8-hydroxy-6,7,8,9-tetrahydro-5H-cyclohepta[b]pyridin-9-yl 4-(2-oxo-2,3-dihydro-1H-imidazo[4,5-b]pyridin-1-yl)piperidine-1-carboxylate] | 7.92
CN[C@@H]1c2cccnc2[C@H](OC(=O)N2CCC(n3c(=O)[nH]c4ncccc43)CC2)CC[C@H]1c1cccc(F)c1F [Example 13, (5S,6S,9R)-6-(2,3-difluorophenyl)-5-(methylamino)-6,7,8,9-tetrahydro-5H-cyclohepta[b]pyridin-9-yl 4-(2-oxo-2,3-dihydro-1H-imidazo[4,5-b]pyridin-1-yl)piperidine-1-carboxylate] | 9.72
CN(C)[C@@H]1c2cccnc2[C@H](OC(=O)N2CCC(n3c(=O)[nH]c4ncccc43)CC2)CC[C@H]1c1cccc(F)c1F [Example 14, (5S,6S,9R)-6-(2,3-difluorophenyl)-5-(dimethylamino)-6,7,8,9-tetrahydro-5H-cyclohepta[b]pyridin-9-yl 4-(2-oxo-2,3-dihydro-1H-imidazo[4,5-b]pyridin-1-yl)piperidine-1-carboxylate] | 8.70
O=C(O[C@@H]1CC[C@@H](c2cccc(F)c2F)/C(=N/O)c2cccnc21)N1CCC(n2c(=O)[nH]c3ncccc32)CC1 [Example 15, (6S,9R,Z)-6-(2,3-difluorophenyl)-5-(hydroxyimino)-6,7,8,9-tetrahydro-5H-cyclohepta[b]pyridin-9-yl 4-(2-oxo-2,3-dihydro-1H-imidazo[4,5-b]pyridin-1-yl)piperidine-1-carboxylate] | 7.55
O=C(O[C@@H]1CC[C@@H](c2cccc(F)c2F)/C(=N\O)c2cccnc21)N1CCC(n2c(=O)[nH]c3ncccc32)CC1 [Example 16, (6S,9R,E)-6-(2,3-difluorophenyl)-5-(hydroxyimino)-6,7,8,9-tetrahydro-5H-cyclohepta[b]pyridin-9-yl 4-(2-oxo-2,3-dihydro-1H-imidazo[4,5-b]pyridin-1-yl)piperidine-1-carboxylate] | 7.40
N[C@@H]1c2cccnc2[C@H](OC(=O)Nc2ccc3c(c2)CC2(C3)C(=O)Nc3ncccc32)CC[C@H]1c1cccc(F)c1F (stereo partly drawn) [Example 17, (5S,6S,9R)-5-amino-6-(2,3-difluorophenyl)-6,7,8,9-tetrahydro-5H-cyclohepta[b]pyridin-9-yl 2′-oxo-1,1′,2′,3-tetrahydrospiro[indene-2,3′-pyrrolo[2,3-b]pyridine]-5-ylcarbamate] | 8.92
N[C@@H]1c2cccnc2[C@H](NC(=O)N2CCC(n3c(=O)[nH]c4ncccc43)CC2)CC[C@H]1c1cccc(F)c1F [Example 18] | 9.10
N[C@@H]1c2cccnc2[C@@H](CC(=O)N2CCC(n3c(=O)[nH]c4ncccc43)CC2)CC[C@H]1c1cccc(F)c1F [Example 21, 1-(1-(2-((5S,6S,9R)-5-amino-6-(2,3-difluorophenyl)-6,7,8,9-tetrahydro-5H-cyclohepta[b]pyridin-9-yl)acetyl)piperidin-4-yl)-1H-imidazo[4,5-b]pyridin-2(3H)-one] | < 6.00
